# Data reported in patent US20250304623A1, “PEPTIDES FOR INTRACELLULAR DELIVERY” (UNIVERSIDADE DE SANTIAGO DE COMPOSTELA, priority 2022, published 2025).
# *: point of attachment. NHNH2 = NN*
# How the values were obtained:
# ARPE19 cells = test: EGFP mRNA delivery, robotic library screening, ARPE19; assay type: cell-based
# Method: Cells were seeded in a 96 well plate the day before the experiment at a concentration of 50,000 cell/mL (100 μL/w) in DMEM+10% FBS+1% Gln-Abt. For robotic library screening, the delivery of EGFP-mRNA (from TriLink, fully substituted with 5-methoxyuridine, capped and polyadenylated; TriLink, CleanCap® EGFP mRNA (5moU), ref. L-7201) in six different cell lines was performed. Amphiphilic molecule stock solutions were prepared in DMSO as described above and diluted in DMEM to afford a range of concentrations. The solutions of EGFP-mRNA/amphiphilic molecule complexes were freshly prepared prior to the transfection experiments. 35 μL of the corresponding amphiphile were added to 10 μL of a solution of EGFP-mRNA at 10 ng/μL in DMEM. The mixture was shaken for 30 min at room temperature before the addition to the cells. The cell medium was aspirated, and cells were washed with PBS twice. Cells were covered with 39 μL of DMEM and 11 μL of the complex's solution were added to the cells and incubated for 4 h (final concentration of peptide=2.5, 5 and 10 μM; final concentration of EGFP-mRNA=25 ng/well). After the incubation, the medium was replaced by 100 μL of fresh DMEM supplemented with 10% FBS. The total EGFP fluorescence was quantified after 72 h in a well plate reader. Amphiphile transfection efficiency was compared and normalized to Lipofectamine® MessengerMax efficiency (value of 1 in Tables 1-5 and 7; double underlined numbers). All experiments were done in triplicate.
# (§1) Tables 1-7: RLuc (pDNA) or EGFP (mRNA) expression levels were normalized to Lipofectamine reagents (value=1) and expressed as fold-times signal increase. In the case of siRNA, the siRNA treated cells fluorescence was compared with siMOCK control fluorescence, while Cas9-RNP mediated knockout was measured against the fluorescence of untreated cells. In both siRNA and Cas9-RNP, values are expressed as % fluorescence reduction. Amphiphile concentration was 5 μM in all cases. All experiments were performed in triplicate.
# Tables 14-19 show the mean (triplicates) fluorescence intensity measured after the transfection of EGFP mRNA by different amphiphiles at different concentrations in a variety of cell lines. Background fluorescence values, accounted by untreated control cells, were subtracted for processing.
# [1] = system: Hela cells expressing EGFP; test: Cas9-RNP delivery against EGFP (gene editing, plate reader), HeLa; assay type: cell-based
# Method: To generate an EGFP expressing HeLa cell line, HeLa cells were transfected with EGFP pDNA (pEGFP-C1, Clontech) and stable transfectants were selected with 400 μg/mL of G-418 (Millipore). Green clones were selected by epifluorescence microscopy and tested for EGFP expression stability through several passages. […] All other EGFP-expressing cell lines were obtained in a similar way from parent non-EGFP-expressing cell lines.
# Cells expressing EGFP were seeded in a 96 well plate the day before the experiment at a concentration of 50,000 cell/mL (100 μL/w) in DMEM+10% FBS+1% Gln-Abt. For robotic library screening, the delivery of Cas9-RNP against EGFP (RNP designed to knock-out the gene encoding for the enhanced green fluorescent protein (EGFP)) was performed. For RNP assembly, 9.2 μL of crRNA and 9.2 μL of tracrRNA were mixed in 211.6 μL of Nuclease-Free Duplex Buffer (IDT), incubated for 5 min at 95° C. and slowly cooled at rt (see I. Lostalé-Seijo, et al. Peptide/Cas9 nanostructures for ribonucleoprotein cell membrane transport and gene edition, Chem. Sci., 2017). Cas9 protein was dissolved in DMEM at a final concentration of 4 μM and equal volumes of the RNA complex and Cas9 were mixed and incubated for 5 min at rt. 75 μL of the corresponding amphiphile concentrations were added to 5 μL of RNP at 2 μM. The mixture was shaken for 30 min at room temperature before the addition to the cells. The cell medium was aspirated, and cells were washed twice with PBS. Cells were covered with 30 μL of DMEM and 20 μL of the RNP/amphiphile complexes were added to the cells (final peptide concentrations=2.5, 5 and 10 μM; final Cas9-RNP concentration=50 nM) and incubated for 4 h. After the incubation, the medium was replaced by 100 μL of fresh DMEM supplemented with 10% FBS. The total EGFP fluorescence was quantified after 72 h in a plate reader (FIG. 2, Table 1 (right) and Table 6). All experiments were done in triplicate.
# as §1
# Tables 26-31 show the mean (triplicates) percentage of gene editing, accounted by GFP fluorescence intensity decrease (% of reduction), measured after the transfection of Cas9-RNP by different amphiphiles at different concentrations in a variety of cell lines. Background values, accounted by untreated control cells, were subtracted for processing.
substance,measurement,setting,value
"Ac-RRLK*RLLRRLK*RLK*RRL-NH2 (Ac-RRLK(NHNH2)RLLRRLK(NHNH2)RLK(NHNH2)RRL-NH2; not fully specified; printed as Ac-RRLK*RLLRRLK*RLK*RRL-NH2; also: K*4,K*11,K*14: native or modified lysine (ε-amide to a linker)) [Peptide 17.3]",mean fluorescence intensity (EGFP mRNA),"ARPE19 cells; Dodecanal, 5 μM",466
same,mean fluorescence intensity (EGFP mRNA),"ARPE19 cells; Myristoleyl, 5 μM",323
same,mean fluorescence intensity (EGFP mRNA),"ARPE19 cells; Myristoleyl, 10 μM",393
same,mean fluorescence intensity (EGFP mRNA),"ARPE19 cells; Petroselinyl, 2.5 μM",479
same,mean fluorescence intensity (EGFP mRNA),"ARPE19 cells; Petroselinyl, 5 μM",351
same,mean fluorescence intensity (EGFP mRNA),"ARPE19 cells; Petroselinyl, 10 μM",293
same,"percentage of gene editing, GFP fluorescence intensity decrease (% of reduction)","[1]; Dodecanal, 5 μM, Hela cells",81%
same,"percentage of gene editing, GFP fluorescence intensity decrease (% of reduction)","[1]; Dodecanal, 10 μM, HeLa cells",87%
same,"percentage of gene editing, GFP fluorescence intensity decrease (% of reduction)","[1]; Dodecanal, 15 μM, Hela cells",78%
same,"percentage of gene editing, GFP fluorescence intensity decrease (% of reduction)","[1]; Myristoleyl, 5 μM, HeLa cells",57%
same,"percentage of gene editing, GFP fluorescence intensity decrease (% of reduction)","[1]; Oleyl, 10 μM, HeLa cells",90%
same,"percentage of gene editing, GFP fluorescence intensity decrease (% of reduction)","[1]; Oleyl, 15 μM, Hela cells",82%
same,"percentage of gene editing, GFP fluorescence intensity decrease (% of reduction)","[1]; Palmitoleyl, 5 μM, HeLa cells",35%
same,"percentage of gene editing, GFP fluorescence intensity decrease (% of reduction)","[1]; Palmitoleyl, 10 μM, HeLa cells",90%
same,"percentage of gene editing, GFP fluorescence intensity decrease (% of reduction)","[1]; Palmitoleyl, 15 μM, Hela cells",88%
same,"percentage of gene editing, GFP fluorescence intensity decrease (% of reduction)","[1]; Petroselinyl, 5 μM, HeLa cells",48%
same,"percentage of gene editing, GFP fluorescence intensity decrease (% of reduction)","[1]; Petroselinyl, 15 μM, Hela cells",87%
